Test [1] addresses T1, Cloned human M1 receptor (CHRM1) stably expressed in HEK293 cells (Homo sapiens, UniProt P11229).
T1 construct: expressed in transfected cells; host or cells: HEK293
T1 sequence (P11229 1-460): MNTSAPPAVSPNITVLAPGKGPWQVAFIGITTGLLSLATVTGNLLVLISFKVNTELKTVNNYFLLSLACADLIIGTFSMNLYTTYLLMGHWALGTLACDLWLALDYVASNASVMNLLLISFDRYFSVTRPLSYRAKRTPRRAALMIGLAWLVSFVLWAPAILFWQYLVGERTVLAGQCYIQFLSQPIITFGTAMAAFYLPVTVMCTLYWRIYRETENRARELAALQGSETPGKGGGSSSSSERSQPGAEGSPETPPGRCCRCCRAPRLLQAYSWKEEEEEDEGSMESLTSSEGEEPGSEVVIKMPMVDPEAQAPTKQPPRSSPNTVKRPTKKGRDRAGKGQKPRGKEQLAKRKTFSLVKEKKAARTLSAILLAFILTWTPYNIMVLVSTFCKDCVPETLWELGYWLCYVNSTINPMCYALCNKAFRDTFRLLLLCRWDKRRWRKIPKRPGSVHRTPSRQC
As to the kind of experiment: CHRM1 Ca++ Flux Assay (agonist mode, FDSS 7000EX). The following applies: for Emax: HEK293, Percent Activity, read-out: M1 FDSS PA; for EC50: geometric mean if tested more than once. Format: cell-based. Summed up:
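Compounds tested as agonists at 11 concentrations in triplicate, with calcium traces captured over 3 minutes. Cells were HEK293 with stable human CHRM1 expression, plated overnight at 25K/well and loaded with calcium dye. Responses normalized to carbachol EC100 and fitted by four-parameter nonlinear regression.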

Test [2] addresses T2, human cloned CHRM2 receptor (M2_CHO cells) (Homo sapiens, UniProt P08172).
T2 construct: expressed in transfected cells; host or cells: CHO-K1
T2 sequence (P08172 1-466): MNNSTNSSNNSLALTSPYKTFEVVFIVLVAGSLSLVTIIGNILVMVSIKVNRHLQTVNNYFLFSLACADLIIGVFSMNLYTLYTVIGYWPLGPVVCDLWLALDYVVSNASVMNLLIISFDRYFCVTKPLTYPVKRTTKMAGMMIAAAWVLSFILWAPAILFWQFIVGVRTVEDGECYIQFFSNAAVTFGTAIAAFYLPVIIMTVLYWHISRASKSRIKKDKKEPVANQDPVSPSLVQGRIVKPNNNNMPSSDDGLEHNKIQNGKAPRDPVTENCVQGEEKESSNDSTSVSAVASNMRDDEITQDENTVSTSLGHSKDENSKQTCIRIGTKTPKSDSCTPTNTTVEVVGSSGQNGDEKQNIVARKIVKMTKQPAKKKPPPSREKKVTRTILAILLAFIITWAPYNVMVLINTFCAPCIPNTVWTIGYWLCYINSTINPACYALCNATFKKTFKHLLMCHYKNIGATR
As to the kind of experiment: CHRM2 Ca++ Flux Assay (agonist mode, FDSS 7000EX). Format: cell-based. The following applies: for Emax: Percent Activity measured to EC100 of Carbachol, read-out: M2 FDSS PA; for EC50: agonist mode, geometric mean if tested more than once, read-out: M2 FDSS EC50. Summed up: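 Agonist-mode Ca++ flux in CHO-K1 cells stably expressing human CHRM2, dye-loaded, then held 60 min at room temperature in buffer with 20 μM ATP before compound addition; traces read over 3 minutes. Four-parameter fit of triplicate wells; percent activity relative to Carbachol EC100.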

For `CC(C)(O)COc1ccccc1C1CCN([C@@H]2CCC3(C2)CN(c2ncncn2)C3)CC1` [Example 5U, (R)-1-(2-(1-(2-(1,3,5-triazin-2-yl)-2-azaspiro[3.4]octan-6-yl)piperidin-4-yl)phenoxy)-2-methylpropan-2-ol], in test [1], the Emax amounted to 2% and a half-maximal effect (EC50) was put at 672 nM. Besides, the Emax in test [2] is 0%.

As for `CC(C)(O)COc1ccccc1C1CCN([C@@H]2CCC3(C2)CN(c2nnco2)C3)CC1` [Example 2A, (R)-1-(2-(1-(2-(1,3,4-oxadiazol-2-yl)-2-azaspiro[3.4]octan-6-yl)piperidin-4-yl)phenoxy)-2-methylpropan-2-ol], the Emax stood at 74% in test [1] and 12% in test [2]. Moreover, the EC50 in test [1] was determined as 147 nM; in test [2], 117 nM.

On to `c1ccc(C2CCN([C@@H]3CCC4(C3)CN(c3cncnc3)C4)CC2)c(OC2CCOCC2)c1` [Example 1L, (R)-2-(pyrimidin-5-yl)-6-(4-(2-((tetrahydro-2H-pyran-4-yl)oxy)phenyl)piperidin-1-yl)-2-azaspiro[3.4]octane], for which, in test [1], the Emax stood at 42% and the EC50 was found to be 166 nM. Also, in test [2], the Emax was 28% and the EC50 turned out to be 214 nM.

As for `O=C(C1COC1)N1CC2(CC[C@H](N3CCC(c4ccccc4OC(F)(F)F)CC3)C2)C1` (single isomer, unassigned) [Example 8G], the Emax in test [1] and in test [2] was 0% in each case. This molecule also registered an EC50 in test [1] above 25000 nM.

As to `COCCOc1ccccc1C1CCN([C@@H]2CCC3(C2)CN(c2ncns2)C3)CC1` [Example 3J, (R)-5-(6-(4-(2-(2-methoxyethoxy)phenyl)piperidin-1-yl)-2-azaspiro[3.4]octan-2-yl)-1,2,4-thiadiazole], in test [1], the Emax came out at 58% and the EC50 was determined as 85 nM. The Emax in test [2] stood at 0%.

`c1ccc(C2CCN([C@@H]3CCC4(C3)CN(c3nnco3)C4)CC2)c(CC2CCOCC2)c1` [Example 2L, (R)-2-(6-(4-(2-((tetrahydro-2H-pyran-4-yl)methyl)phenyl)piperidin-1-yl)-2-azaspiro[3.4]octan-2-yl)-1,3,4-oxadiazole]: the Emax was 69% in test [1] and 0% in test [2]. Further, it took 540 nM to reach a half-maximal effect in test [1] (EC50).

As to `c1ccc(C2CCN([C@@H]3CCC4(C3)CN(c3nnco3)C4)CC2)c(C2CCOCC2)c1` [Example 2H, (R)-2-(6-(4-(2-(tetrahydro-2H-pyran-4-yl)phenyl)piperidin-1-yl)-2-azaspiro[3.4]octan-2-yl)-1,3,4-oxadiazole], the Emax in test [1] came to 61%; in test [2], 32%. For the same molecule, the EC50 amounted to 178 nM in test [1] and 458 nM in test [2].

With `c1ccc(C2CCN([C@@H]3CCC4(C3)CN(c3nnco3)C4)CC2)c(O[C@@H]2CCOC2)c1` [Example 2B, 2-((R)-6-(4-(2-(((R)-tetrahydrofuran-3-yl)oxy)phenyl)piperidin-1-yl)-2-azaspiro[3.4]octan-2-yl)-1,3,4-oxadiazole], the Emax in test [1] was 107%; in test [2], 32%. The EC50 in test [1] came out at 36 nM; in test [2], 39 nM.

`O=C(C1COC1)N1CC2(CC[C@@H](N3CCC(c4ccccc4Oc4nccs4)CC3)C2)C1` [Example 7C, (R)-oxetan-3-yl(6-(4-(2-(thiazol-2-yloxy)phenyl)piperidin-1-yl)-2-azaspiro[3.4]octan-2-yl)methanone]: in test [1], the Emax worked out at 87% and a half-maximal effect (EC50) was put at 11 nM. Also, the Emax in test [2] was 0%.

As to `c1ccc(C2CCN([C@@H]3CCC4(C3)CN(c3nnco3)C4)CC2)c(OCC2CCOCC2)c1` [Example 2G, (R)-2-(6-(4-(2-((tetrahydro-2H-pyran-4-yl)methoxy)phenyl)piperidin-1-yl)-2-azaspiro[3.4]octan-2-yl)-1,3,4-oxadiazole], in test [1], the Emax was 51% and the EC50 was determined as 429 nM. Moreover, in test [2], the Emax was determined as 19% and the EC50 was found to be 136 nM.
